# Laboratory results as given in US20260232750A1, “COMPOSITION AND METHOD FOR INHIBITING ADVANCED GLYCATION END PRODUCTS” (ACCESS BUSINESS GROUP INTERNATIONAL LLC, priority 2022, published 2026).
# Structures can show the parent of a compound that is named as a salt.
# Key:
# [1] = system: CML expression in human dermal fibroblasts (HDFs); experiment: Anti-glycation activity on HDFs (CML immunofluorescence, glyoxal/MGO-induced); assay type: cell-based
# Protocol: HDFs cells were digested from T75 flasks and seeded to 12 well culture plate on slides at 50,000 cells per well. After 48 h the cells were treated by 0.5 mM glyoxal for 48 h. Then the cells were treated with or without positive controls or active samples for an additional 48 h. At the end of the experiment, cell slides were washed once by phosphate-buffered saline (PBS) and fixed in polyformaldehyde overnight at 4° C. For […] (CML) biomarker staining, the slides were blocked in 1% bovine serum albumin (BSA) for 1 h then applied with primary CML antibody (1:50) overnight at 4° C. The next day secondary antibody (1:1000) was applied for 2 h at room temperature. […] Image J was used to quantified CML expression from different visions randomly picked by each group. Data is presented as the mean±SD, and analyzed with Student's t-test or one-way ANOVA. * P<0.05, ** P<0.01, *** P<0.001. […]
# HDFs were cultured in high-glucose DMEM supplemented with 10% FBS containing 100 µg/ml of PS at 37° C. in a humidified 5% CO2 incubator. Cell viability was assessed using the CCK-8 kit. […] Counterstaining was performed by adopting anti-fluorescence quenching and sealing liquid containing DAPI, followed by visualisation and fluorescence image capture using a microscope (Leica, Germany). ImageJ software was used to quantify CML expression from different images randomly selected in each group.
# [2] = system: AGEs in wild type AB zebrafish; experiment: Anti-glycation activity on zebrafish (AGEs increase model, 0.4 M glucose); assay type: in vivo; conditions: 200 μg/mL, 5 dpf zebrafish, 24 h
# Protocol: Zebrafish were all fed in fish culture water at 28° C. (water quality: 200 mg instant sea salt was added to 1 L reverse osmosis water, the conductivity was 450-550 μS/cm; PH 6.5~8.5; Hardness of 50-100 mg/L CaCO3), provided by a fish breeding center, experimental animal use license number: SYXK (Zhejiang) 2012-0171, feeding management in line with the international AAALAC certification (certification number: 001458) requirements. Wild type AB zebrafish are bred naturally in pairs. Zebrafish aged 5 days after fertilization (DPF) were used to evaluate the anti-aging efficacy of samples.
# Five DPF wild type AB zebrafish were randomly selected and placed in 1.5 mL centrifuge tubes, with 10 zebrafish in each tube (experimental group). The extracts of Dendrobium officinale flower were given in aqueous solution with positive control aminoguanidine hydrochloride (AG) concentration of 200 μg/mL, and normal control group and model control group were set at the same time. The volume of each tube was 150 μL. […] After 24 h treatment on a 60° C. shaker, the supernatant was centrifuged and the data were collected using a multifunctional microplate reader, the fluorescent values of AGEs in each experimental group were analyzed, and the results of statistical analysis of this indicator were used to evaluate the anti-aging efficacy of samples.
# [3] = system: fluorescent AGEs (BSA-fructose/glucose system); experiment: Fluorescent AGEs formation in a BSA-fructose/glucose system; assay type: biochemical, bovine
# Protocol: The formation of total fluorescent AGEs in glycated samples was assessed by determining their fluorescent intensities at an excitation/emission wavelength of 350/450 nm, as previously described. Glycated protein was prepared in vitro by incubating BSA in the presence of D-glucose (GLC) and D-fructose (FRC). The DOF extract and specific standards were dissolved in DMSO:water (1:4). BSA (4 mg/ml, 100 μl) was preliminary mixed with 50 μl of GLC (0.5 M) and 50 μl of FRC (0.5 M) in 20 mM sodium phosphate buffer (pH 7.4), and then 100 μl samples were added in the 96-well plate and incubated at 37.5° C. for 7 days. All solutions were prepared under sterile conditions and filtered using a 0.22-μm syringe before incubation. The assay was performed in triplicate, and AG was used as a positive control.
smiles,measurement,setting,value
N=C(N)NN [Aminoguanidine hydrochloride],"Anti-glycation effect, CML expression, AVE","[1]; 0.1 mM, 48 h after 0.5 mM glyoxal, Glyoxal = 100.00",11.89
same,inhibition of glycation,"[1]; positive compound AG, MGO-induced HDFs, CML IF",88.11%
same,AGEs fluorescence value (mean ± SE),[2],35106 ± 770
same,"IC50, fluorescent AGEs","[3]; BSA-fructose/glucose, 37.5° C., 7 days, text b277",177.3 ± 11.6 µg/mL
same,IC50,"[3]; read-out: IC50, AGE formation",1.6 mM
